In article PMC11561622, “Evaluating Antimalarial Proteasome Inhibitors for Efficacy in Babesia Blood Stage Cultures” (ACS Omega, 2024):
Entries after “also recorded” stand apart in the source; their conditions may differ.

Assays:
[1] = test system: B. divergens proteasome β5 subunit; type: biochemical, Babesia divergens
Method: (§1) B. divergens and B. microti protein lysates were prepared from infected red blood cells. Briefly, red blood cells were lysed with 0.15% saponin prepared in 1× Phosphate-Buffered Saline (PBS), pH 7.5, to release intact parasites. Parasites were washed with 1× PBS, pH 7.5 (PBS), by centrifugation and the pellets were stored at −80 °C in PBS plus 20% glycerol. To prepare protein lysates for enzymatic assays, parasites were thawed and transferred to 50 mM HEPES (pH 7.5), 10 μM E64, 100 μM AESBF, 1 μM Pepstatin A, and 1 mM DTT (all Sigma-Aldrich). Cells were ruptured by ultrasonication with an amplitude of 0.5 for 3 cycles of 15 s on ice. To prepare protein lysates for activity-based probing and proteasome purification, parasites were thawed and transferred to 20 mM Tris-HCl, pH 7.5, 1 mM DTT, 10 μM E64, and 5% glycerol. The lysate was sonicated on ice for 3 times and clarified by centrifugation at 17,000g for 10 min at 4 °C.
To further improve the detection of the β5 subunit activity with the Suc-LLVY-amc substrate of the Babesia proteasome as previously published,[27] we aimed to further optimize assay conditions. However, to reduce the number of experimental animals in the study, assay conditions were optimized using protein lysates of B. divergens, which can be grown in vitro, instead of B. microti lysates, which need to be maintained in mice. […] Assay conditions were optimized in 50 μL volumes in round-bottom 96-well plates. Two assay buffers were evaluated. Buffer A, as described previously,[27] consists of 20 mM HEPES, pH 8, 1 mM ATP, and 1 μM E64, while Buffer B consists of 50 mM HEPES, pH 7.5, 5 mM ATP, 10 μM E64, 100 μM AESBF, 1 μM Pepstatin A, and 1 mM DTT. Buffers A and B were tested with either 0.02% SDS or 6.67 ng of PA28 as activators of the proteasome activity. […] The release of the AMC fluorophore was monitored at 37 °C in a Synergy HTX multimode reader (BioTek) with excitation and emission wavelengths set to 340 and 460 nm, respectively.
Proteasome activity in B. microti and B. divergens lysates was screened in the presence of carmaphycin B (CPB) and numerous analogs that were previously designed to target the P. falciparum 20S proteasome.[30] A pool of lysates was made for each species to ensure that equal amounts of the lysates were used in each inhibition reaction. Inhibitors were transferred to black 384-well plates with the ATS acoustic transfer system (ATS-100, Biosera). Lysates were incubated with inhibitors for 30 min at room temperature and activity was assayed in 30 μL reactions. Each reaction mixture contained 5 μL of Babesia lysate, 10 nL of the inhibitor (final concentration of 133.33 nM), and 25 μL of assay buffer with 25 μM substrate succinyl-Leu-Leu-Val-Tyr-7-amido-4-methylcoumarin (Suc-LLVY-amc). The release of the AMC fluorophore was monitored at 37 °C in a Synergy HTX multimode reader (BioTek Instruments, Winooski, VT) with excitation and emission wavelengths set to 340 and 460 nm, respectively. Activity was quantified as RFU per second and normalized to the DMSO control reactions.

[2] = test system: B. microti proteasome β5 subunit; assay: β5 proteasome activity in B. microti lysates (Suc-LLVY-amc); type: biochemical, Babesia microti; conditions: 133.33 nM inhibitor, relative to DMSO
Method: as §1
To further improve the detection of the β5 subunit activity with the Suc-LLVY-amc substrate of the Babesia proteasome as previously published,[27] we aimed to further optimize assay conditions. However, to reduce the number of experimental animals in the study, assay conditions were optimized using protein lysates of B. divergens, which can be grown in vitro, instead of B. microti lysates, which need to be maintained in mice. […] Two assay buffers were evaluated. […] The release of the AMC fluorophore was monitored at 37 °C in a Synergy HTX multimode reader (BioTek) with excitation and emission wavelengths set to 340 and 460 nm, respectively.
Proteasome activity in B. microti and B. divergens lysates was screened in the presence of carmaphycin B (CPB) and numerous analogs that were previously designed to target the P. falciparum 20S proteasome.[30] […] The release of the AMC fluorophore was monitored at 37 °C in a Synergy HTX multimode reader (BioTek Instruments, Winooski, VT) with excitation and emission wavelengths set to 340 and 460 nm, respectively. Activity was quantified as RFU per second and normalized to the DMSO control reactions.

[3] = test system: catalytic subunits of Bd20S; assay: Activity-based probe labeling (Me4BodipyFL-Ahx3Leu3VS) of Bd20S catalytic subunits; type: binding, Babesia divergens; conditions: lysates from CFZ- and CPB-treated cells, vs vehicle
HepG2 cells = conditions: previously reported; cited from earlier work

CCCCCC(=O)N[C@H](C(=O)N[C@@H](CCS(C)(=O)=O)C(=O)N[C@@H](CC(C)C)C(=O)[C@@]1(C)CO1)C(C)C [carmaphycin B]
inhibition of β5 activity in B. divergens lysate (in words) [1]: to the same extent as CFZ; also recorded: completely inactivate
inhibition of β5 activity in B. microti lysate (in words) [2]: to the same extent as CFZ
inhibition of β5 activity in B. microti lysate (in words) ([2]; listed as CPB): inhibited
labeling of catalytic subunits by activity-based probe [3]: significantly reduced
EC50 (HepG2 cells): 12.6 ± 1.4 nM
